The values that follow come from ChEMBL document CHEMBL4033634, “Synthesis and biological evaluation of novel aromatic and heterocyclic bis-sulfonamide Schiff bases as carbonic anhydrase I, II, VII and IX inhibitors” (Bioorg Med Chem, 2017).

In general, Ki refers to the dissociation constant of the complex between target and ligand, obtained from inhibition or displacement. Lower therefore signals higher affinity.

Where only a bound is given, the exact number is not on record here.

The first test concerns the target Carbonic anhydrase 9 (Homo sapiens, UniProt Q16790). Briefly: Inhibition of human carbonic anhydrase 9 incubated for 10 mins by stopped flow CO2 hydrase assay.
Take `NS(=O)(=O)c1cccc(/N=C/c2ccc(/C=N/c3cccc(S(N)(=O)=O)c3)o2)c1`: the inhibitory constant (Ki) was determined as 516 nM.

With `NS(=O)(=O)c1nnc(/N=C/c2ccc(/C=N/c3nnc(S(N)(=O)=O)s3)cc2)s1`, the affinity, expressed as Ki, was 25.2 nM. Same read-out and setting: the value for `NS(=O)(=O)c1ccc(/N=C/c2ccc(/C=N/c3ccc(S(N)(=O)=O)cc3)o2)cc1` was 76.2 nM; that for `NS(=O)(=O)c1ccc(CC/N=C/c2ccc(/C=N/CCc3ccc(S(N)(=O)=O)cc3)cc2)cc1` was 261 nM; that for `NS(=O)(=O)c1cccc(/N=C/c2cccc(/C=N/c3cccc(S(N)(=O)=O)c3)c2)c1` was 678 nM.

For `NS(=O)(=O)c1nnc(/N=C/c2ccc(/C=N/c3nnc(S(N)(=O)=O)s3)o2)s1`, the affinity corresponds to a Ki of 5.9 nM.

The compound `NS(=O)(=O)c1ccc(/N=C/c2cccc(/C=N/c3ccc(S(N)(=O)=O)cc3)c2)cc1` came in with an inhibition constant (Ki) of 93.1 nM. On the same count and under the same terms, with `NS(=O)(=O)c1ccc(CC/N=C/c2ccc(/C=N/CCc3ccc(S(N)(=O)=O)cc3)o2)cc1` the figure was 153 nM; with `NS(=O)(=O)c1nnc(/N=C/c2cccc(/C=N/c3nnc(S(N)(=O)=O)s3)c2)s1`, 0.5 nM; with `NS(=O)(=O)c1ccc(/N=C/c2ccccc2/C=N/c2ccc(S(N)(=O)=O)cc2)cc1`, 21.8 nM. On the same count and under the same terms, with `NS(=O)(=O)c1ccc(CC/N=C/c2cccc(/C=N/CCc3ccc(S(N)(=O)=O)cc3)c2)cc1` the figure was 319 nM; with `NS(=O)(=O)c1cccc(/N=C/c2ccccc2/C=N/c2cccc(S(N)(=O)=O)c2)c1`, 89.6 nM.

As to `NS(=O)(=O)c1nnc(/N=C/c2ccccc2/C=N/c2nnc(S(N)(=O)=O)s2)s1`, the inhibitory constant (Ki) was 5.8 nM. For `NS(=O)(=O)c1ccc(/N=C/c2ccc(/C=N/c3ccc(S(N)(=O)=O)cc3)cc2)cc1`, the Ki was 934 nM. Same read-out and setting: the value for `NS(=O)(=O)c1cccc(/N=C/c2ccc(/C=N/c3cccc(S(N)(=O)=O)c3)cc2)c1` was 1470 nM; that for `NS(=O)(=O)c1ccc(CC/N=C/c2ccccc2/C=N/CCc2ccc(S(N)(=O)=O)cc2)cc1` was 17.9 nM.

The target of the next test is Carbonic anhydrase 1 (Homo sapiens, UniProt P00915). In words: Inhibition of human carbonic anhydrase 1 incubated for 10 mins by stopped flow CO2 hydrase assay.
Sequence of Carbonic anhydrase 1 (P00915 whole entry): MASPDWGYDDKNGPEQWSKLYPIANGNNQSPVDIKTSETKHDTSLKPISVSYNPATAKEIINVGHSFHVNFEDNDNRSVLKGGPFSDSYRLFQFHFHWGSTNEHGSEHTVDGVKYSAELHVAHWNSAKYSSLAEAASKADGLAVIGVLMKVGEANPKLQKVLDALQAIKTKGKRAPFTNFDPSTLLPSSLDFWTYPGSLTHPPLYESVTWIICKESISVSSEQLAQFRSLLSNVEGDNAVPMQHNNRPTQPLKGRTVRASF
Consider `NS(=O)(=O)c1cccc(/N=C/c2ccc(/C=N/c3cccc(S(N)(=O)=O)c3)o2)c1`, for which the Ki is more than 10 µM.
